In patent US20110230476A1, “PI3 KINASE INHIBITORS AND USES THEREOF” (AVILA THERAPEUTICS, INC., priority 2009, published 2011):
pEC50, pIC50: −log10 of the molar value.

What was measured:
[1] = target: T1, PI3Kβ (p110β/p85α) (Homo sapiens, UniProt P42338); test: HTRF assay, potency against active PI3Kβ; type: biochemical; conditions: [ATP]=50 μM, [di-C8-PIP2]=10 μM, 30 min pre-incubation, read-out: PI3Kβ Inhibition
T1 construct: purchased BPS Bioscience (San Diego, Calif.) or Millipore (Billerica, Mass.)
T1 sequence (P42338 whole entry): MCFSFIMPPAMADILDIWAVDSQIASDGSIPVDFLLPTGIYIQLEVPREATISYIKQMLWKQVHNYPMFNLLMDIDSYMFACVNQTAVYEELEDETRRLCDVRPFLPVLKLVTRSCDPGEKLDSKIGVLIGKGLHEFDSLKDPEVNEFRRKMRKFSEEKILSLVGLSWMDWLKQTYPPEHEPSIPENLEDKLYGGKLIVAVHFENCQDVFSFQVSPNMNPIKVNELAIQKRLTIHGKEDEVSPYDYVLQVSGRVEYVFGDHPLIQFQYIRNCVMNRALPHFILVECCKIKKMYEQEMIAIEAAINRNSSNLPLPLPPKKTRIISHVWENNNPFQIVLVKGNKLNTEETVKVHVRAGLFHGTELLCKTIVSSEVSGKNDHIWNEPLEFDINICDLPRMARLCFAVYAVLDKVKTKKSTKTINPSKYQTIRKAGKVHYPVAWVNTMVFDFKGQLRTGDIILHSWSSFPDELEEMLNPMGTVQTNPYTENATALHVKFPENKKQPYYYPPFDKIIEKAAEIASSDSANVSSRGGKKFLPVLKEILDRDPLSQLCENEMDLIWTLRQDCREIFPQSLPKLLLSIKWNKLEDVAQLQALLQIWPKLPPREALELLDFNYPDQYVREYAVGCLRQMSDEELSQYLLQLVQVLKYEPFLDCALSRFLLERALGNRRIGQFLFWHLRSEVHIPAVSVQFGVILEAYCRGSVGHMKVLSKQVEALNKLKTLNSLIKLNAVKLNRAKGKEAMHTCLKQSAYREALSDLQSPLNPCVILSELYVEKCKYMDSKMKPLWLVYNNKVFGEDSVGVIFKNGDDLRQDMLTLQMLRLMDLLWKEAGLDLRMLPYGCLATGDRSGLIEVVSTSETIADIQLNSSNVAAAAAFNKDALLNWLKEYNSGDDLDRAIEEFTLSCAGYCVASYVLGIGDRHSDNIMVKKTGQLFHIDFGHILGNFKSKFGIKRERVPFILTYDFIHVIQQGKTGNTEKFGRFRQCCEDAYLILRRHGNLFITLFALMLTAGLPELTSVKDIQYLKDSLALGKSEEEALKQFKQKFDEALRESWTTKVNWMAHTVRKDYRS
T1 sequence (P27986 whole entry partner): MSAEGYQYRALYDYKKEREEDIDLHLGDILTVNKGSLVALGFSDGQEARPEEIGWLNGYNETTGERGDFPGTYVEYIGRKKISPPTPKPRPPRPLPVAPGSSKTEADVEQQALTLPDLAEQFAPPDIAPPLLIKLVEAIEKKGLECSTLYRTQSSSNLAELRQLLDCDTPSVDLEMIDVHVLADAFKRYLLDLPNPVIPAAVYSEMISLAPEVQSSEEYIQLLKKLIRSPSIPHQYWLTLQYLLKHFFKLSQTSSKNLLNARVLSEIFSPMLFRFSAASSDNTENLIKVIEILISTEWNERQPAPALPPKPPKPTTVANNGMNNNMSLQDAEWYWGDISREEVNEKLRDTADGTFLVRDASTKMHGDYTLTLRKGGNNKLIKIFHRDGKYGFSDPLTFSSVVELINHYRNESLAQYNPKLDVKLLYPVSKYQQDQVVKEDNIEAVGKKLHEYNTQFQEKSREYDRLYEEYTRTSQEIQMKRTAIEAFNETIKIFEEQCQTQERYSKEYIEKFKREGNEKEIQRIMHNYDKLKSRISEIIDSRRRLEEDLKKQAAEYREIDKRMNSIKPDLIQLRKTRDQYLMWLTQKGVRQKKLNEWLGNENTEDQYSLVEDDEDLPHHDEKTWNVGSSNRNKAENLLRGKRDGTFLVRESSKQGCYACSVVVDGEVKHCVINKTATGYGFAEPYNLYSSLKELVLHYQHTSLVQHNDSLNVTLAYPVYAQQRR
Method in brief: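 IC50 came from a variable-slope fit of % inhibition, calculated from the HTRF emission ratio relative to wells with and without enzyme. Reactions with the active enzyme complex ran 30-60 minutes at 25 °C after ATP addition before stop and detection reagents.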

[2] = test system: Phospho-Akt(Ser473); test: Dose response in SKOV3 cells as determined by Western blot; type: cell-based; conditions: Homo sapiens, SK-OV-3, 1 hr, Phospho-Akt normalized to total Akt, read-out: Immunoblot
Method in brief: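 SKOV3 cells in DMEM/10% FBS were treated with compound in 0.1% DMSO for 1 hr, then lysed. 50 ug protein was immunoblotted for Phospho-Akt(Ser473) and total Akt with fluorescent read-out. Phospho-Akt was normalized to total Akt and expressed as percent of untreated signal.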

[3] = test system: Phospho-Akt(Ser473); test: Dose response in SKOV3 cells as determined by in-cell Western; type: cell-based; conditions: Homo sapiens, SK-OV-3
Method in brief: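 SKOV3 cells treated with compound for 1 hr, then formaldehyde-fixed, permeabilised and stained overnight for phospho-Akt(Ser473) with anti-tubulin as a reference. Infrared secondary antibodies read at 680 and 800 nm channels by in-cell Western imaging.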

[4] = test system: HCT116 cells; test: HCT-116 cell proliferation assay; type: cell-based; conditions: Homo sapiens, 72 hours, Cell Titer Glo
Description: HCT-116 Cell Proliferation Assay
(§1) For the HCT116 Proliferation Assay, 3000 cells per well were plated in Growth Media (DMEM, 10% FBS, 1% 1-glutamine, 1% penicillin/streptomycin) in 96 well plates. The following day, compounds were added to duplicate wells at concentrations of 10 uM and 3-fold dilutions down to 40 nM. The plates were returned to the incubator for 72 hours and then the assays were developed using Cell Titer Glo (Promega, Madison, Wis.) according to manufacturer's instructions.

[5] = test system: SK-OV-3 cells; test: SK-OV-3 cell proliferation assay; type: cell-based; conditions: Homo sapiens; SK-OV-3 proliferation, 72 hours, Cell Titer Glo
Description: SK-OV-3 Cell Proliferation Assay
as §1, with “SK-OV-3 proliferation” for “HCT116 Proliferation”, “5000” for “3000”

[6] = SKOV3 cells, 1 hr, read-out: pAKT Inhibition in cell Western

SMILES	pIC50 [1]	pEC50 [2]	pEC50 [3, 6]	pEC50 ([3]; Table 19, assay not given, classes agree with Table 23, read-out: EC50 pAkt^Ser473)	pEC50 [4]	pEC50 [5]
CC(C)=CC(=O)CCC(=O)N1CCN(Cc2cc3nc(-c4cccc5[nH]ncc45)nc(N4CCOCC4)c3s2)CC1 [II-a-3, 1-(4-((2-(1H-indazol-4-yl)-4-morpholinothieno[3,2-d]pyrimidin-6-yl)methyl)piperazin-1-yl)-6-methylhept-5-ene-1,4-dione]	< 6.00	7.00 to 8.00	≥ 8.00	≥ 8.00		
C/C=C/C(=O)CCC(=O)N1CCN(Cc2cc3nc(-c4cccc5[nH]ncc45)nc(N4CCOCC4)c3s2)CC1 [II-a-36, (E)-1-(4-((2-(1H-indazol-4-yl)-4-morpholinothieno[3,2-d]pyrimidin-6-yl)methyl)piperazin-1-yl)hept-5-ene-1,4-dione]	< 6.00	7.00 to 8.00	6.00 to 7.00		5.00 to 6.00	6.00 to 7.00
